Experimental data reported in PubChem BioAssay (NCI).
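In this assay, cells in 96-well plates receive the compound at five concentrations for 48 hours. Endpoints are linearly interpolated between the surrounding concentrations. TGI: concentration producing complete growth inhibition.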

Columns and labels:
Assay in all cases: growth of human tumour cells (NCI), 48 h
SF-268 CNS = tested on: SF-268 CNS
SN12C renal = tested on: SN12C renal
M14 melanoma = tested on: M14 melanoma
MOLT-4 leukemia = tested on: MOLT-4 leukemia
EKVX NSCLC = tested on: EKVX NSCLC
HCT-116 colon = tested on: HCT-116 colon
SW-620 colon = tested on: SW-620 colon
IGROV1 ovarian = tested on: IGROV1 ovarian
UO-31 renal = tested on: UO-31 renal
RXF 393 renal = tested on: RXF 393 renal
SNB-75 CNS = tested on: SNB-75 CNS
786-0 renal = tested on: 786-0 renal
ACHN renal = tested on: ACHN renal
RPMI-8226 leukemia = tested on: RPMI-8226 leukemia
T-47D breast = tested on: T-47D breast
OVCAR-5 ovarian = tested on: OVCAR-5 ovarian
SNB-19 CNS = tested on: SNB-19 CNS
TK-10 renal = tested on: TK-10 renal
MDA-N = tested on: MDA-N
SK-MEL-2 melanoma = tested on: SK-MEL-2 melanoma
NCI-H460 lung = tested on: NCI-H460 lung
KM12 colon = tested on: KM12 colon
HT29 colon = tested on: HT29 colon
PC-3 prostate = tested on: PC-3 prostate
SK-MEL-5 melanoma = tested on: SK-MEL-5 melanoma
UACC-257 melanoma = tested on: UACC-257 melanoma
COLO 205 colon = tested on: COLO 205 colon
SR leukemia = tested on: SR leukemia
HCT-15 colon = tested on: HCT-15 colon
A498 renal = tested on: A498 renal
CAKI-1 renal = tested on: CAKI-1 renal
U251 CNS = tested on: U251 CNS
SK-OV-3 ovarian = tested on: SK-OV-3 ovarian
HS 578T breast = tested on: HS 578T breast
MDA-MB-435 = tested on: MDA-MB-435
MDA-MB-231 breast = tested on: MDA-MB-231 breast
OVCAR-3 ovarian = tested on: OVCAR-3 ovarian
K-562 leukemia = tested on: K-562 leukemia
MCF7 breast = tested on: MCF7 breast
HOP-62 NSCLC = tested on: HOP-62 NSCLC
MALME-3M melanoma = tested on: MALME-3M melanoma
DU-145 prostate = tested on: DU-145 prostate
NCI-H226 lung = tested on: NCI-H226 lung
UACC-62 melanoma = tested on: UACC-62 melanoma
CCRF-CEM leukemia = tested on: CCRF-CEM leukemia
NCI/ADR-RES ovarian = tested on: NCI/ADR-RES ovarian
NCI-H23 lung = tested on: NCI-H23 lung
OVCAR-8 ovarian = tested on: OVCAR-8 ovarian
SF-295 CNS = tested on: SF-295 CNS
BT-549 breast = tested on: BT-549 breast
LOX IMVI melanoma = tested on: LOX IMVI melanoma
SF-539 CNS = tested on: SF-539 CNS
HL-60(TB) leukemia = tested on: HL-60(TB) leukemia

Measured: TGI

COC(=O)C1=COc2c(n(C)c3ccccc23)-c2ccccc21
> 100 µM: SF-268 CNS | SN12C renal | M14 melanoma | MOLT-4 leukemia | EKVX NSCLC | HCT-116 colon | SW-620 colon | IGROV1 ovarian | UO-31 renal | RXF 393 renal | SNB-75 CNS | 786-0 renal | ACHN renal | RPMI-8226 leukemia | T-47D breast | OVCAR-5 ovarian | SNB-19 CNS | TK-10 renal | MDA-N | SK-MEL-2 melanoma | NCI-H460 lung | KM12 colon | HT29 colon | PC-3 prostate | SK-MEL-5 melanoma | UACC-257 melanoma | COLO 205 colon | SR leukemia | HCT-15 colon | A498 renal | CAKI-1 renal | U251 CNS | SK-OV-3 ovarian | HS 578T breast | MDA-MB-435 | MDA-MB-231 breast | OVCAR-3 ovarian | K-562 leukemia | MCF7 breast | HOP-62 NSCLC | MALME-3M melanoma | DU-145 prostate | NCI-H226 lung | UACC-62 melanoma | CCRF-CEM leukemia | NCI/ADR-RES ovarian | NCI-H23 lung | OVCAR-8 ovarian | SF-295 CNS | BT-549 breast | LOX IMVI melanoma | SF-539 CNS | HL-60(TB) leukemia
